The values that follow come from ChEMBL document CHEMBL3639124, “Oxadiazole inhibitors of leukotriene production” (2013).

As a reminder, the IC50 is the concentration that inhibits the measured activity by half. Read a low IC50 as greater potency.

For this experiment, the target named is T1, Arachidonate 5-lipoxygenase-activating protein (Homo sapiens, UniProt P20292).
T1 sequence (P20292 whole entry): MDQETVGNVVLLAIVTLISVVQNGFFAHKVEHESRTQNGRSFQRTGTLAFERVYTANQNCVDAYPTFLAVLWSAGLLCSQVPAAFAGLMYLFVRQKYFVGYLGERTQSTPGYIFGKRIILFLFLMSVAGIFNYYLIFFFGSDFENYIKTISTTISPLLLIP
Description: Binding Assay: Compounds area assessed for the ability to bind to FLAP in a binding assay that measures compound-specific displacement of an iodinated (125I) FLAP inhibitor via a scintillaion proximity assay format (adapted from S. Charleson et. al., Mol. Pharmacol., 1992,41 873-879).
The compound `CC(C)(C)NC(=O)Cn1cc(-c2nc(C3(c4ccc(-c5cnc(N)nc5)nc4)CCC3)no2)cn1` showed an IC50 of 14 nM.

Regarding `COC(=O)[C@@H]1CN(c2ccc(-c3nc(C4(c5ccc(-c6cnc(N)nc6)nc5)CCC4)no3)cn2)CCN1`, the IC50 worked out at 3.7 nM.

For the compound `CCNc1cnc(-c2nc(C3(c4ccc(-c5cnc(N)nc5)nc4)CCC3)no2)cn1`, the IC50 was 2.4 nM.

Compound `COCCNc1cnc(-c2nc(C3(c4ccc(-c5cnc(N)nc5)nc4)CCC3)no2)cn1` had an IC50 of 3.2 nM.

For `CCNC(=O)Cn1cc(-c2nc(C3(c4ccc(-c5cnc(N)nc5)nc4)CCC3)no2)cn1`, the IC50 came out at 100 nM.

`Nc1ncc(-c2ccc(C3(c4noc(-c5ccc6[nH]ncc6c5)n4)CCC3)cn2)cn1` came in with an IC50 of 4 nM.

`CN1CCN(c2cnc(-c3nc(C4(c5ccc(-c6cnc(N)nc6)nc5)CCC4)no3)cn2)CC1`: the IC50 came to 1.8 nM.

With `COCCn1cc(-c2nc(C3(c4ccc(-c5cnc(N)nc5)nc4)CCC3)no2)cn1`, the IC50 was 17 nM.

In the case of `N#CCn1cc(-c2nc(C3(c4ccc(-c5cnc(N)cn5)nc4)CCC3)no2)cn1`, the IC50 worked out at 48 nM.
